Assay results reported in PMC8333425, “Discovery of a dual Ras and ARF6 inhibitor from a GPCR endocytosis screen” (Nature Communications, 2021).
“And” between values parts separate entries of the source, which are not always exact repeats. Equal values may be shown once.

Tested on: Ras
Assay: GST-Raf1-RBD pull-down of AT1R-mediated Ras activation
Format: cell-based, human
Details: for Ras-GTP over total Ras, GST-Raf1-RBD pull-down, AT1R: Comp 21 50 μM, individual experiments
From the text: Since 21 inhibited both ERK1/2 and Akt activation by GPCRs and EGFR, we looked at a common target involved in both pathways. The small G protein Ras is an upstream regulator of both Ras-RAF-MEK-ERK and PI3K/Akt signaling pathways[35],[36]. Therefore, we explored 21’s ability to inhibit Ras activity using GST-Raf1-Ras-binding domain (RBD) in a pull-down assay. A reduction of 60% in GTP-bound Ras was noticed in pulled-down from cells treated with 21 and stimulated with either AT1R or EGFR, as compared to vehicle-treated cells (Fig. 4a, b). Complementary to this in vitro assay, we generated a Ras BRET assay, using the Raf-Ras binding domain tagged with RlucII (Raf1-RBD-RlucII) and the rGFP at the PM (rGFP-CAAX) (Supplementary Fig. 3c), to assess 21’s effects on Ras activation kinetics. […] Overexpression of either the active form of Ras (G12V) or SOS1 anchored at the PM (SOS-CAAX) produced a robust basal BRET signal that was no longer modulated by receptor activation (Supplementary Fig. 3d). […] 21’s potency to inhibit ARF6 and Ras is also consistent with its relative efficacy for inhibiting AT1R internalization and MAPK, respectively, when used at 50 μM (e.g., around 7 and 70 times the respective IC50s) (Figs. 2e and 3a). We also assessed if 21 was acting as a pan small G protein inhibitor by testing its effect on Rho and Rac/Cdc42. […] To assess Rac/Cdc42 activity, we generated a Rac/Cdc42 BRET sensor that consisted of the PAK-CRIB domain fused to RlucII (PAK-CRIB-RlucII) and the rGFP-CAAX (Supplementary Fig. 3e). PAK-CRIB, which binds to active Rac/Cdc42, was recruited to the PM upon AngII stimulation of cells and generated a robust BRET signal, which was blocked by the overexpression of the DN Rac1-T17N. Overexpression of the constitutively active Rac1-Q61L increased the basal BRET, which was no longer modulated by AT1R stimulation (Supplementary Fig. 3f).
Activation of ARF1, ARF6, Ras, and Rho were assessed by using GST pull-down assays. […] ImageLab 5.2 software was used to quantify the digital blots as fold of the amount of pulled down protein over total protein. […]

SMILES: CC(C)C(=O)N1CCN(c2ccc(NC(=O)c3cc4ccccc4o3)cc2Cl)CC1 [Compound 21]
- reduction in GTP-bound Ras, AT1R-stimulated cells (pull-down) (50 μM, compared to vehicle-treated cells): 60%
- Ras-GTP over total Ras, GST-Raf1-RBD pull-down, AT1R (AngII): 0.2615 and 0.2571 and 0.1009 and 0.2909 and 0.08351
- Ras-GTP over total Ras, GST-Raf1-RBD pull-down, AT1R (Ctrl (no AngII)): 0.2526 and 0.08678 and 0.1353 and 0.1074 and 0.09399
